Consider 4 compounds from patent US20220372099A1 (priority 2019, published 2022).

The subject of data set [1] is Polycythemia vera. As to conditions: PV mice expressing the orthologous JAK2 mutation; cited from earlier work.
Data set [2] has as its system Polycythemia vera. Description: Phase 2 study in patients with phlebotomy-requiring Polycythemia vera. The following applies: 10-80 mg SC weekly.
From the text: Eligible patients were enrolled in the 28-week dose finding part of the Phase 2 trial. […] Body iron status was quantified by monitoring serum ferritin, serum iron, transferrin saturation (TSAT), mean corpuscular volume (MCV) and mean corpuscular hemoglobin (MCH).
Data set [3] is described as follows: Phase I single dose study in healthy subjects. As to conditions: 62 healthy subjects. Type of data set: in vivo, human. An excerpt: Compound A is a hepcidin mimetic agent in clinical studies for multiple blood disorders.
Data set [4] concerns erythropoietic activity. Description: repeat-dose study, 4 weekly SC doses with 28-day recovery, limiting erythropoiesis. As to conditions: SC weekly x4.
Data set [5] deals with erythropoietic activity. The experiment in a line: repeat-dose study, 13 weekly SC doses with 35-day recovery, limiting erythropoiesis. The data set is classed as in vivo, Cynomolgus monkeys. An excerpt:
A cohort of animals (4/sex/group) were sacrificed on Day 92 (Main), and the remaining animals (2/sex/group) were sacrificed on Day 120 following a 35-day recovery period (Recovery).

The nature of data set [6]: plasma concentrations of Compound A in PV patients. As to conditions: SC doses of 10 mg to 80 mg, various times after dosing. The data set is classed as in vivo, human. The procedure: Plasma concentrations of Compound A were measured at various times after dosing of subcutaneous doses of 10 mg to 80 mg in PV patients. The concentrations increased in a dose-dependent manner and varied based on dose and time of sampling. Compound A concentrations ranged from below detectable (<2 ng/mL) to 866 ng/mL (FIGS. 17A and 17B).

The test system of another data set is serum iron. Description: PK-PD experiment, serum iron (Cobas Iron2 colorimetric assay). Type of data set: in vivo, Cynomolgus monkeys. The following applies: 2.93 mg/kg SC. As to the method:
Iron content in plasma/serum was measured using a colorimetric assay on the Cobas c 111 according to instructions from the manufacturer of the assay (assay: IRON2: ACN 661).

Data set [7] has as its system Polycythemia vera. The following applies: through week 32 (portal vein thrombosis); 6 events with BAT; cited from earlier work.

Take “minihepcidin: hepcidin mimetic administered to PV mice in Casu et al., Blood 2016; not further defined (DTHFPICIF)”: in the data set with Polycythemia vera [1], the hematocrit entry is given as “normalizes hematocrit” and the splenomegaly result is on record as “significantly reduces splenomegaly”.

Take `CCCCCCCCCCCCCCCC(=O)N[C@@H](CCC(=O)NCCCC[C@@H]1NC(=O)[C@H]([C@@H](C)CC)NC(=O)[C@@H](NC(=O)[C@@H]2CCCN2C(=O)[C@H](Cc2ccccc2)NC(=O)[C@H](Cc2c[nH]cn2)NC(=O)[C@@H](NC(=O)[C@H](CC(=O)O)NC(=O)CC(C)C)[C@@H](C)O)CSSC[C@@H](C(=O)N[C@@H](CCCCN)C(N)=O)NC(=O)CNC(=O)[C@H](CCCCN)NC(=O)[C@H](CO)NC(=O)[C@H](CCCNC(=N)N)NC(=O)[C@@H]2CCCN2C(=O)[C@H](CCC(=O)O)NC(=O)[C@H](Cc2ccccc2)NC1=O)C(=O)O` [Compound A]: in the data set on Polycythemia vera [2], the “grade of most of the injection site reactions” value is given as 1-2 grade, the “leukocyte count over the course of treatment” value is listed as “remained generally steady”, the “most frequent adverse events” value is “injection site reaction (ISR) reported by three patients” and the “platelet counts over the course of treatment” value is “remained generally steady”. In addition, the tolerability entry in the data set with Polycythemia vera [2] is reported as “well tolerated”. The adverse events result in data set [3] is reported as “without significant adverse events”. Besides, in the data set with erythropoietic activity [4], the “dose causing pharmacology-mediated anemia (dose- and time-dependent decreases in Hct and Hgb)” value is not below 3 mg/kg/dose. Besides, in the data set on erythropoietic activity [5] (SC weekly x13), the “dose with hematopoietic hypercellularity in bone marrow, extramedullary hematopoiesis and hemosiderin deposition in liver and spleen” value was not below 2 mg/kg/dose; the “dose with increased organ weight (liver and spleen)” value is on record as 6 mg/kg/dose. In addition, the “dose with increase in total bilirubin (tBili)” value with erythropoietic activity [5] (during the treatment period) was not below 2 mg/kg/day. Also, the “dose with significantly elevated levels of platelets” value in the data set with erythropoietic activity [5] (male and female animals) is listed as 6 mg/kg/dose. For the same compound, the “plasma concentrations of Compound A, ranged from below detectable (<2 ng/mL) up to” value in data set [6] is recorded as not above 866 ng/mL.

“Isovaleric acid-DTHFPCIKF(K(PEG11-Palm))PRSK[Sar]CK-NH2 [Compound B]”: in the data set on serum iron, the “time of maximal serum iron reduction” value is listed as “about 12 hour”. Besides, the “serum iron lower than the pre-dose levels (maximal reduction)” value in the data set with serum iron (about 12 hour post administration) is on record as 12 fold.

On to `N#CC[C@H](C1CCCC1)n1cc(-c2ncnc3[nH]ccc23)cn1` [ruxolitinib], for which the thromboembolic events in the data set with Polycythemia vera [7] was 1 event.
